Here are results for five compounds from patent publication EP4692094A1 (Beijing Konruns Pharmaceutical Co., Ltd., priority 2023, dated 2024).

A short description of data set [1]: Assay for plasma protein binding rate (equilibrium dialysis), mouse plasma. In kind it is in vitro ADME. The following applies: dialysis 6 h at 37 °C, read-out: Mouse (Fu%). The protocol: 1.1 Preparation of compounds: The compounds prepared in the examples were each dissolved in dimethylsulfoxide to give solutions at a concentration of 10 mmol/L. • 1) The example compounds were each diluted from 10 mmol/L stock solution to 0.2 mmol/L, i.e., 1 µL of the compound was added to 49 µL of DMSO; • 2) 3 µL of 0.2 mmol/L test compounds were added to 597 µL of blood plasma, and the mixtures were vortexed at 1000 rpm for 2 min; • 3) 50 µL of the plasma containing the drug in 2) was taken, 50 µL of PBS was added, and 300 µL of methanol internal standard* was added to serve as a sample T0; • 4) 120 µL of the plasma containing the drug in 2) was taken and added to one side of an HTD device membrane, and 120 µL of PBS was added to the other side of the membrane; a breathable film was covered, and the plasma and the residual sample in 2) were balanced at 37 °C (100 rpm and 5% CO2) for 6 h; • 5) 50 µL of the dialyzed plasma side sample was taken, 50 µL of PBS was added, and 300 µL of methanol internal standard* was added to serve as a sample P; • 6) 50 µL of the dialyzed PBS side sample was taken, 50 µL of blank plasma was added, and 300 µL of methanol internal standard* was added to serve as a sample B; • 7) 50 µL of the plasma containing the drug in 2) was taken, 50 µL of PBS was added, and 300 µL of methanol internal standard* was added to serve as a sample T6; • 8) All samples were vortexed, mixed homogeneously, and then centrifuged at 3220 g for 40 min at 4 °C; • 9) 100 µL of the supernatant and 100 µL of purified water were mixed homogenously for liquid chromatography-mass spectrometry.
An internal standard method was used, and the plasma protein binding rate, recovery rate, and residual percentage were calculated by using Excel according to the ratio of the peak area of the sample to the peak area of the internal standard. Free rate(%) = (RatioB)/(RatioP) × 100% [formula] Binding rate(%) = 100%−Free rate% [formula] Recovery rate(%) = (RatioB + RatioP)/(RatioT0) × 100% [formula] Remaining percentage(%) = (RatioT6)/(RatioT0) × 100% [formula]
RatioB: a ratio of the peak area of the test substance on the PBS side to the peak area of the internal standard; RatioP: a ratio of the peak area of the test substance on the plasma side to the peak area of the internal standard; RatioT6: a ratio of the peak area of the sample after incubation with the test substance for 6 h to the peak area of the internal standard; RatioT0: a ratio of the peak area of the sample after incubation with the test substance for 0 h to the peak area of the internal standard. Table 8. Plasma protein binding rate (Fu%) data for various species of example compounds

In data set [2] the target is T1, KAT5 (Homo sapiens, UniProt Q92993).
T1 construct: purchased signalChem K314-380G
Nature of the data set: Enzymatic activity assay for KAT5 acetyltransferase (TR-FRET, histone substrate H4). The following applies: KAT5 1.5 nM, H4 200 nM, AcCOA 2 µM. In kind it is biochemical. How it is done:
(§1) The acetylation effects of KAT6B on histone substrate H3, as well as KAT5, KAT7, and KAT8 on histone substrate H4, were determined using the TR-FRET (time-resolved fluorescence resonance energy transfer) method. The determination was performed according to experimental procedures similar to those in "Pharmacological Experiment I": 1.2 Preparation of compounds: The compounds prepared in the examples were each dissolved in dimethylsulfoxide to give solutions at a concentration of 10 mmol/L. • 1) The compounds in the examples were each diluted from 10 mmol/L stock solution to 0.2 mmol/L, i.e., 1 µL of the compound was added to 49 µL of DMSO, and 3-fold dilution was performed to give 10 concentrations. • 2) 50 nL of the test compounds were transferred to 384 reaction plates using Echo, two replicates for each compound, and the plates were centrifuged at a rotation speed of 1000 rpm for 1 min, the final concentration of dimethylsulfoxide (DMSO) being 0.5%. […]
(§2) For KAT8: • 3) 2.5 µL of the KAT8 enzyme solution at a final concentration of 10 nM was added to the 384 reaction plates in step 2), and the plates were centrifuged at 1000 rpm for 1 min and incubated at 25 °C for 10 min. • 4) 2.5 µL of […] at a final concentration of 300 nM and an AcCOA (acetyl-CoA) reaction solution at a final concentration of 2 µM were added to the 384 reaction plates in step 3), and the plates were centrifuged at a rotation speed of 1000 rpm for 1 min and incubated at 25 °C for 90 min. • 5) 5 µL of Eu-Ab& Ulight-SA detection solution was separately added to the 384 reaction plates in step 4) of the 4 groups described above, and the plates were centrifuged at 1000 rpm for 1 min and incubated at 25 °C for 60 min. • 6) The HTRF […] signals were read using a BMG high-throughput drug-screening multi-mode microplate reader.
(§3) The acetylation levels of the histones in the groups were analyzed by the GraphPad Prism 8 software. […]
On the technique in general: Time-resolved FRET reads energy transfer from a long-lived donor to a nearby acceptor.

For data set [3], the target named is T2, KAT6B (Homo sapiens, UniProt Q8WYB5).
T2 construct: purchased active motife (Active Motif) 81224
Nature of the data set: Enzymatic activity assay for KAT6B acetyltransferase (TR-FRET, histone substrate H3). Type of data set: biochemical. The note with it: KAT6B 3 nM, Bio-H3 400 nM, AcCOA 2 µM. The protocol: as §1, §2, §3

T1 sequence (Q92993 whole entry): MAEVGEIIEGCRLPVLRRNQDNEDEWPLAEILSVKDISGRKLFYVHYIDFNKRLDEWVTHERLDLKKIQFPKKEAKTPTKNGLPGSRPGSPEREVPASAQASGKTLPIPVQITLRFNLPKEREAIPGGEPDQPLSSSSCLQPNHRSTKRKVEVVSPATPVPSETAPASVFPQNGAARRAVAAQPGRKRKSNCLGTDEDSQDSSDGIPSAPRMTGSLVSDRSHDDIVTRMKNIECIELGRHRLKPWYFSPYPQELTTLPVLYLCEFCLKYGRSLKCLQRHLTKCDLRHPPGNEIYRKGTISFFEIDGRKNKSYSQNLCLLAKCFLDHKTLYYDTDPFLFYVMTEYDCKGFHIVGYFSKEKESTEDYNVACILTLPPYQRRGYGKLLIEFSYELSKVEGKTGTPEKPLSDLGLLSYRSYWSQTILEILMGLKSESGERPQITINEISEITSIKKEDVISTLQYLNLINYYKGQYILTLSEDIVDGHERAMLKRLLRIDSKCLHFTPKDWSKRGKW
T2 sequence (Q8WYB5 whole entry): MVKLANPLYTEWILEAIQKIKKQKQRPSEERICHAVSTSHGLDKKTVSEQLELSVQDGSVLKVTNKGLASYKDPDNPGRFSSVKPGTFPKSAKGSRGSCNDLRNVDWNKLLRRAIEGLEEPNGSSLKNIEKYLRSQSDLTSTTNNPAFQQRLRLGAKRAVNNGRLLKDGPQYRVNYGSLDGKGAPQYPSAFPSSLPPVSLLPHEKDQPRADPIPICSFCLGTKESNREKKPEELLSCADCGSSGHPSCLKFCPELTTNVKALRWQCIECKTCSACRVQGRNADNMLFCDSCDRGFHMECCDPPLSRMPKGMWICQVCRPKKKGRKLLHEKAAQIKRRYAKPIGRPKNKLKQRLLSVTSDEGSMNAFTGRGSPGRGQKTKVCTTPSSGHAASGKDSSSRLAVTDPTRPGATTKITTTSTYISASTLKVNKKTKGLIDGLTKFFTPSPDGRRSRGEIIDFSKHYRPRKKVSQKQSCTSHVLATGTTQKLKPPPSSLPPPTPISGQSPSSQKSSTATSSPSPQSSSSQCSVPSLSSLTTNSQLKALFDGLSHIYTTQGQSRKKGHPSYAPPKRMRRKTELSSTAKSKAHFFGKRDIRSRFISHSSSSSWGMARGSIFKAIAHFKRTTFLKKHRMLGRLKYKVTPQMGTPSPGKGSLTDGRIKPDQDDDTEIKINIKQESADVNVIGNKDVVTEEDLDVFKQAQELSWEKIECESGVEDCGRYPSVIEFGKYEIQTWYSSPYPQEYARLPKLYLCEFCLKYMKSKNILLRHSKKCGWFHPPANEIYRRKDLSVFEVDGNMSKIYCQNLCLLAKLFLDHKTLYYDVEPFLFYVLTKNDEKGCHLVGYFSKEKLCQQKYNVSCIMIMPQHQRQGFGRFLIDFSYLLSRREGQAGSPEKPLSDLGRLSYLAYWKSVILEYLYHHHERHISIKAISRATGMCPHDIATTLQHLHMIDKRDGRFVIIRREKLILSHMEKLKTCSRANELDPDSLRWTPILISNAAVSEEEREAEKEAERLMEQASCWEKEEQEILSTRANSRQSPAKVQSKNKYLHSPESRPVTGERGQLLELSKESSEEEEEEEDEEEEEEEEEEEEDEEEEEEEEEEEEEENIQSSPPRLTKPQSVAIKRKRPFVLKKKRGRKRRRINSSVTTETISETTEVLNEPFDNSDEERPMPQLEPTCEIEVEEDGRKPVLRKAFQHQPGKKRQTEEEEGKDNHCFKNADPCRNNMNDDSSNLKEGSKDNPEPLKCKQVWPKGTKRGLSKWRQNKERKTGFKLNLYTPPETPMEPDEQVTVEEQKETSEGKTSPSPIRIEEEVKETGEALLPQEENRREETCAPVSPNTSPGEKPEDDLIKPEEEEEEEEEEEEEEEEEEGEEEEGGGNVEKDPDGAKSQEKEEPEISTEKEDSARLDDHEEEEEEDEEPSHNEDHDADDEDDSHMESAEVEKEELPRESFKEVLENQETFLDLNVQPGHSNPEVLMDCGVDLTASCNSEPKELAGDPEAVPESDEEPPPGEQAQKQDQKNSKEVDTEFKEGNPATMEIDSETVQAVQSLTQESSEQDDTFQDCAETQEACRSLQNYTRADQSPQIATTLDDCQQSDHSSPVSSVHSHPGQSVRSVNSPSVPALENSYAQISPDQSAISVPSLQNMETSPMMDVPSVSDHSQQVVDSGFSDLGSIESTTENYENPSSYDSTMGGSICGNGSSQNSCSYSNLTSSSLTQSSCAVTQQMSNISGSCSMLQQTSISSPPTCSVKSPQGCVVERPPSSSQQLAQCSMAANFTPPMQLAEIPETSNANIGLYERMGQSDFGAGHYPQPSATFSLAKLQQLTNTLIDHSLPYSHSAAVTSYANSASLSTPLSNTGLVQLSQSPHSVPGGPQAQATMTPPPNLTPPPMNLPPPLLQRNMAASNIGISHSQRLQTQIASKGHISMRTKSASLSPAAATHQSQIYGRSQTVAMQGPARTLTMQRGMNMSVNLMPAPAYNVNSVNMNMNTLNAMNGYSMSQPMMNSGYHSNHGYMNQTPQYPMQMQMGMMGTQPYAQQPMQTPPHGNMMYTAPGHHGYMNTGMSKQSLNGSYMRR

As to `COc1cc2c(cc1S(=O)(=O)Nc1noc3cc(Cn4cccn4)nc(OC)c13)CCCO2` [Example 76, N-(6-((1H-Pyrazol-1-yl)methyl)-4-methoxyisoxazolo[4,5-c]pyridin-3-yl)-7-methoxy-3,4-dihydro-1H-benzopyran-6-sulfonamide], in data set [1], the fraction unbound at 6 h, 1 µM turned out to be 0.0072.

A word on the IC50: it is the concentration that inhibits the measured activity by half. For `COc1cc2c(cc1S(=O)(=O)Nc1noc3cc(Cn4cccn4)nc(OC)c13)OCC2` [Example 59, N-(6-((1H-Pyrazol-1-yl)methyl)-4-methoxyisoxazolo[4,5-c]pyridin-3-yl)-5-methoxy-2,3-dihydrobenzofuran-6-sulfonamide], the fraction unbound at 6 h, 1 µM in data set [1] is 0.05. Also, the half-inhibitory concentration (IC50) is 171 nM in data set [2] and 9.5 nM in data set [3].

For the compound `COc1cc2c(cc1S(=O)(=O)Nc1noc3cc(Cn4cccn4)nc(OC)c13)CCCC2` [Example 2, N-(6-((1H-Pyrazol-1-yl)methyl)-4-methoxyisoxazolo[4,5-c]pyridin-3-yl)-3-methoxy-5,6,7,8-tetrahydronaphthalene-2-sulfonamide], the fraction unbound at 6 h, 1 µM in data set [1] came to 0.0065. Moreover, the values for the half-inhibitory concentration (IC50) in data set [2] and in data set [3] were 219 nM and 2.34 nM, respectively.

Take `COc1ccc2ccoc2c1S(=O)(=O)Nc1noc2cc(Cn3cccn3)nc(OC)c12` [Example 10, N-(6-((1H-Pyrazol-1-yl)methyl)-4-methoxyisoxazolo[4,5-c]pyridin-3-yl)-6-methoxybenzofuran-7-sulfonamide]: the fraction unbound at 6 h, 1 µM in data set [1] was determined as 0.0512. Also, the IC50 in data set [2] is 66.4 nM; in data set [3], 1.78 nM.

With `COc1ccc2c(c1S(=O)(=O)Nc1noc3cc(Cn4cccn4)nc(OC)c13)OCC2` [Example 9, N-(6-((1H-Pyrazol-1-yl)methyl)-4-methoxyisoxazolo[4,5-c]pyridin-3-yl)-6-methoxy-2,3-dihydrobenzofuran-7-sulfonamide], the fraction unbound at 6 h, 1 µM in data set [1] is 0.0478.
